Experimental data published in US20220242846A1, “ISOINDOLINONE COMPOUNDS” (Monte Rosa Therapeutics AG, priority 2019, published 2022).

What was measured:
[1] = biological target: T1, Full length wild-type cereblon CRBN (Homo sapiens, UniProt Q96SW2); experiment: Fluorescence polarization (FP) assay indicating cereblon binding; settings: CRBN 80.0 nM, fluorescent probe 5 nM, FP measured after 12 hours; read-out: rFP IC50
T1 construct: Full length wild-type cereblon CRBN (80.0 nM, 10 μL) was incubated in assay buffer
T1 sequence (Q96SW2 whole entry): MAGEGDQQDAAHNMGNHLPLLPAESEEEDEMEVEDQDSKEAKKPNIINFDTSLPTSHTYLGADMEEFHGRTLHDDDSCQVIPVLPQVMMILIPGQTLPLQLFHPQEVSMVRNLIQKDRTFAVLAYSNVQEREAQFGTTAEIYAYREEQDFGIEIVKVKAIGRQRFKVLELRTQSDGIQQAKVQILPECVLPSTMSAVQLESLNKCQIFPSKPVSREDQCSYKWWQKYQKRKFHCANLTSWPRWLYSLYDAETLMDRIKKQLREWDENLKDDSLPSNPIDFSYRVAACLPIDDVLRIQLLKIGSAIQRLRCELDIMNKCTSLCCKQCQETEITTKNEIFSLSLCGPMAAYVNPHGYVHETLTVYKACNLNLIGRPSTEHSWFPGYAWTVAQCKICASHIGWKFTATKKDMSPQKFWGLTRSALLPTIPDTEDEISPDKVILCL
Source text: Protocol for Fluorescent Polarization Assay
Compound activity was monitored in a fluorescence polarization (FP) homogeneous assay using 1-[5-({2-[2-(2-{[2-(2,6-dioxopiperidin-3-yl)-1,3-dioxo-2,3-dihydro-1H-isoindol-4-yl]oxy}acetamido)ethoxy]ethyl}carbamoyl)pentyl]-3,3-dimethyl-2-[(1E,3E)-5-[(2E)-1,3,3-trimethyl-5-sulfo-2,3-dihydro-1H-indol-2-ylidene]penta-1,3-dien-1-yl]-3H-indol-1-ium-5-sulfonate as a fluorescent probe. Unless otherwise stated, all reagents were purchased from Sigma Aldrich. Enzymatic reactions were conducted in Perkin-Elmer Black 384 well ProxiPlate Plus (catalogue no. 6008269) in 10 μL total volume. Full length wild-type cereblon CRBN (80.0 nM, 10 μL) was incubated in assay buffer containing 20 mM HEPES (pH 8.0), […], 0.5 mM TCEP and 0.05% Tween 20 in the presence or absence of compound (300 nL). Inhibitors were stored as 10 mM DMSO stocks in an inert environment (low humidity, dark, low oxygen, room temperature) using the Storage Pod System. Compounds and DMSO were dispensed using the Echo E5XX (Labcyte Inc. USA) to give concentrations from 300 to 0.937 or 3000 to 9.3 nM in a 12 data point curve. […] Following incubation at room temperature for […], the assay was initiated by dispensing the probe to a final concentration of 5 nM (2.5 nL of a 20 μM stock) using the Echo E5XX. FP was measured after a period of 12 hours using a Pherastar plate reader (BMG Labtech, Germany) exciting at 590 nm and measuring the amount of parallel and perpendicular light at 675 nm. The FP signal was subsequently normalized to the no-compound control (i.e., DMSO). Analysis and IC50 values were derived using Dotmatics (Dotmatics UK) software.

[2] = tested on: Human mammary epithelial cells (HMEC) engineered to express EGFP alone (non myc); experiment: 3D spheroid assay, non myc-HMEC (CellTiterGlo3D viability); assay type: cell-based; settings: 120 h, 3D spheroids, 5 days with compound, read-out: Code: EC50 value in the non myc-HMEC assay
Procedure: (§1) 3D Spheroid Experiments—HMEC
(§2) Human mammary epithelial cells (HMEC) were engineered to express either c-myc tagged with EGFP or EGFP alone (non myc) (analogous but distinct from Kessler J D et al, Science. 2012 Jan. 20; 335(6066):348-53. doi: 10.1126/science.1212728; Hsu T Y et al, Nature. 2015 Sep. 17; 525(7569):384-8. doi: 10.1038/nature14985). The engineered cells were seeded at 1000 (myc) or 4000 (non myc) cells/well in a 384 ultra-low attachment plate in a total volume of 40 µL, HMEC cell culture media (DMEM/F12+10% HI-FBS+15 mM HEPES+0.5 ug/ml Hydrocortisone+10 ug/ml Insulin+20 ng/ml EGF). Plates were spun at 1200 rpm for 5 minutes at room temperature to ensure that cells have gathered in the middle of the well and incubated at 37° C. for 48 hrs before firing with compounds. On Day 2 (48 h post seeding) cells were imaged (brightfield and EGFP fluorescence) using the Celigo imaging cytometer prior to firing compounds. For primary screens, compounds were added at three concentrations (1.25, 10 and 30 uM) in a volume of 120 nL using the ECHO acoustic dispenser and spun at 2000 rpm for 2 minutes at room temperature before incubating at 37° C. for 5 days. […] On Day 7, prior to measuring cell viability using CellTiterGlo3D, cells were imaged (brightfield and EGFP fluorescence) on the Celigo imaging cytometer. The CellTiterGlo3D reagent is added at 30uL/well and incubated at room temperature for 30mins After 30mins of incubation, luminescence readings were recorded using the Perkin Elmer EnVision reader.

[3] = biological target: GSPT1 (Homo sapiens, UniProt P15170+Q96SW2); experiment: Immunofluorescence assay for GSPT1 degradation in CAL-51 cells; assay type: cell-based; parameters: CAL-51 cells were purchased from DSMZ (cat. Number ACC302); endogenous in cells; host or cells: CAL-51 (DSMZ ACC302); settings: compound treatment 6 hours, read-out: Code: activity for GSPT1 degradation (DC50)
Chain of GSPT1 (P15170 whole entry): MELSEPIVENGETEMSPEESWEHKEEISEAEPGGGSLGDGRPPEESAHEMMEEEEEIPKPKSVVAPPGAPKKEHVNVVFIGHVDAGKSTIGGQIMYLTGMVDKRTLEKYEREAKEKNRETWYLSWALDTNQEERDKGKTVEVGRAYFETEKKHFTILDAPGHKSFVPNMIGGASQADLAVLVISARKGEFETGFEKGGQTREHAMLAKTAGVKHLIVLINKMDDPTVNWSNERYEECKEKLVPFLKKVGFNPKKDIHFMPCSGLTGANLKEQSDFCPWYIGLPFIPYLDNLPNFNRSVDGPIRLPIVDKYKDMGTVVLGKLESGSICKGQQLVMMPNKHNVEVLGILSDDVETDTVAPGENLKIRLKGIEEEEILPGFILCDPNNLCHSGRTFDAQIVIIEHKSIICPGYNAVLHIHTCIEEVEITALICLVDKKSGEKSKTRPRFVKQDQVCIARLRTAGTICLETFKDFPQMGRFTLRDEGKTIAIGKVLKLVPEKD
Chain of GSPT1 (Q96SW2 whole entry): as the sequence (Q96SW2 whole entry) above
Chain of GSPT1 (Q16531 2-1140 partner limits assumed): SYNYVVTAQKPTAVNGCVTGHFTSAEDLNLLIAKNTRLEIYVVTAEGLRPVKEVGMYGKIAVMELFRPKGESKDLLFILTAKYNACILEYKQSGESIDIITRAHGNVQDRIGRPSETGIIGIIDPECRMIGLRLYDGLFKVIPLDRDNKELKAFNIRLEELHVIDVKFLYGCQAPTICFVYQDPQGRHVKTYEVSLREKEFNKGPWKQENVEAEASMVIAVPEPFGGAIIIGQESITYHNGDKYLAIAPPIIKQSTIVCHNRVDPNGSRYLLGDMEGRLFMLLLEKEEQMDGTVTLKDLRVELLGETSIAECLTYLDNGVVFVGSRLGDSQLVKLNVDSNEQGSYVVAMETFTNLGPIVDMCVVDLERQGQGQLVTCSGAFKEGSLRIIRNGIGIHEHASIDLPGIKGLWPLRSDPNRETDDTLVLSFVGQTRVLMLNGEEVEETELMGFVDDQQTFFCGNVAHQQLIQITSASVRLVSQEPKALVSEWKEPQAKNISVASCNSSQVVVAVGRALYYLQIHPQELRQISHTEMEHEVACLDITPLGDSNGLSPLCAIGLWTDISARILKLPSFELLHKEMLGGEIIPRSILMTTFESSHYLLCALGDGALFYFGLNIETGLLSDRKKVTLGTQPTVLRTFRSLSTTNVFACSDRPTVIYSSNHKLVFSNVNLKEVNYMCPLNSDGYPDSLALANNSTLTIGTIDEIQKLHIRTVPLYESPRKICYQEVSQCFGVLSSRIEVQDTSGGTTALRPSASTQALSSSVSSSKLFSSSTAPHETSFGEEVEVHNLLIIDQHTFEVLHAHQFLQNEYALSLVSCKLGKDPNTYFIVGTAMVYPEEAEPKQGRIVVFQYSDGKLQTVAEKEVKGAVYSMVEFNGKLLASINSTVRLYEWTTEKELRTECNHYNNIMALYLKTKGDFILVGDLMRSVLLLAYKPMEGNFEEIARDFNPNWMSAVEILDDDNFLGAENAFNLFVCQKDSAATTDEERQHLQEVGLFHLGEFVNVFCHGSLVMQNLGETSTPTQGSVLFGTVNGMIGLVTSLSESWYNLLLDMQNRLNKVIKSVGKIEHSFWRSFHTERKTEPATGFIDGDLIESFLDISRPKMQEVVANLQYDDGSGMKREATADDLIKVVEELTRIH
Procedure: CAL-51 cells were purchased from DSMZ (cat. Number ACC302), sub-cultured in 90% Dulbecco's MEM (4.5 g/L glucose, Gibco 11965) +10% heat inactivated FBS (BioConcept, 2-01F136I) and incubated at 37° C., 5% CO2. For the assay, imaging microtiterplate Cell Carrier 96 Ultra (Perkin Elmer 6055302) were pre-coated with Fibronectin (Sigma F085, 300 at 0.2 μg/ml) in PBS (1000, Gibco 14190) for 45 min at room temperature, rinsed with PBS and CAL-51 cells (30K cells/well) were plated and let to adhere overnight. Cells were treated with compounds typically using a serial dilution ranging from 30 μM to 0.1 nM for 6 hours. Compounds were stored at 10 mM DMSO stocks. Vehicle (DMSO), positive (CC-885, 10 μM) and rescue controls (positive control plus 0.2 μM bortezomib) were also included at this stage. Cells were subsequently rinsed with PBS and fixed in 10% Formalin solution (50 μl, Sigma HT5011)) for 20 mins at room temperature. Following three consecutive PBS washes (100 μl), cells were permeabilized in 0.1% Triton X-100 in PBS (Sigma 93443, 50 μl) for 15 mins at room temperature. Following three further PBS washes, 50 μl blocking buffer (1% BSA, Sigma A4503, in PBS) was added for 45 min for signal-to-noise reduction. Primary antibody (human GSPT1, Sigma HPA052488) was diluted in blocking buffer (dil. 1/300, 35 μl/well) and incubated with the cells overnight at 4° C. After three PBS washes, Alexa-fluor 488 coupled secondary antibodies (Invitrogen, A32731, dil. 1/1000), Alexa-fluor 647-Phalloïdin (Invitrogen, A22287, dil. 1/200) and DAPI (Thermo, #62248, dil.1/1000) were diluted in blocking buffer and incubated with the samples for 2 hours at room temperature. After three final PBS washes, samples were conserved in 1000 PBS in the dark, until measurement. Image acquisition was performed on the Operetta High-Content Imager (Perkin-Elmer). Fluorescence intensity of Alexa-Fluor 488 (GSPT1), Alexa-Fluor 647 (Actin) and DAPI (Nucleus) were measured. For the determination of GSPT1 DC50 values, a custom algorithm implemented in the PerkinElmer image analysis software Harmony-Acapella® was developed. After user-defined setting of adjustment parameters, the analysis was run identically without human intervention for all image fields. DAPI staining of the nuclei was used to determine the location of cells using standard nuclei detection modules. Segmentation artifacts were removed by threshold-based filters for area, roundness and intensity. The outline of the cells was determined analogously from the sum of the normalized, smoothed DAPI and Actin channel, starting from each nucleus. The Alexa-Fluor 488 (GSPT1) signal intensity in each cell was finally measured, in order to obtain a Mean intensity per cell. GSPT1 degradation (DC50) was calculated after normalization to controls and data import in CDD vault Database, using non-linear regression. Activity for GSPT1 Degradation Table 3 assigns each compound a code indicating the ability for GSPT1 degradation: A, B or C. According to the code, A represents a DC50 value of ≤100 nM, B represents a DC50 value >100 nM and ≤300 nM and C represents a DC50 value of >300 nM.

[4] = tested on: Human mammary epithelial cells (HMEC) engineered to express c-myc tagged with EGFP; experiment: 3D spheroid assay, myc-HMEC (CellTiterGlo3D viability); assay type: cell-based; settings: Homo sapiens, HMEC, 120 h, 3D spheroids, 5 days with compound, read-out: Code: EC50 value in the myc-HMEC assay
Procedure: as §1, §2

| Compound | IC50 [1] [nM] | EC50 [2] [nM] | DC50 [3] [nM] | EC50 [4] [nM] |
| --- | --- | --- | --- | --- |
| COc1cc(C)c(Cl)cc1NC(=O)NCc1ccc2c(c1)C(=O)N(C1CCC(=O)NC1=O)C2 (stereo not shown) [Compound 76] | 281 | > 10000 | ≤ 100 |  |
| CCOc1ccc(NC(=O)NCc2ccc3c(c2)C(=O)N(C2CCC(=O)NC2=O)C3)cc1 (stereo not shown) [Compound 16] | 817 | > 10000 | > 300 | > 2000 |
| O=C1CCC(N2Cc3ccc(CNC(=O)NC4CCCc5ccccc54)cc3C2=O)C(=O)N1 (stereo not shown) [Compound 40] | 566 | > 10000 | > 300 | > 2000 |
| O=C1CCC(N2Cc3ccc(CNC(=O)NCCCc4ccccc4)cc3C2=O)C(=O)N1 (stereo not shown) [Compound 70] | 253 | > 10000 | > 300 | > 2000 |
| Cc1cccc(NC(=O)NCc2ccc3c(c2)C(=O)N(C2CCC(=O)NC2=O)C3)c1 (stereo not shown) [Compound 43] | 757 | > 10000 | > 300 | > 2000 |
| O=C1CCC(N2Cc3ccc(CNC(=O)Nc4ccc(OC(F)(F)F)cc4)cc3C2=O)C(=O)N1 (stereo not shown) [Compound 77] | 570 | > 10000 | ≤ 100 |  |
| Cc1cc(Cl)c(NC(=O)NCc2ccc3c(c2)C(=O)N(C2CCC(=O)NC2=O)C3)cc1Cl (stereo not shown) [Compound 78] | 725 | > 10000 | ≤ 100 |  |
| Cc1nccn1-c1cccc(NC(=O)NCc2ccc3c(c2)C(=O)N(C2CCC(=O)NC2=O)C3)c1 (stereo not shown) [Compound 113] | 283 |  | > 300 |  |
| Cc1c(Cl)cc(NC(=O)NCc2ccc3c(c2)C(=O)N(C2CCC(=O)NC2=O)C3)cc1C[C@H]1CO[C@@H](C)OC1 (stereo partly shown) [Compound 145] | 741 |  | ≤ 100 |  |
| Cn1ccc(NC(=O)NCc2ccc3c(c2)C(=O)N(C2CCC(=O)NC2=O)C3)c1 (stereo not shown) [Compound 128] | 302 |  | > 300 |  |
| Cc1cc(Cl)c(NC(=O)NCc2ccc3c(c2)C(=O)N(C2CCC(=O)NC2=O)C3)c(C)c1Cl (stereo not shown) [Compound 96] | 222 |  | > 300 |  |
| O=C1CCC(N2Cc3ccc(CNC(=O)Nc4cccc(-c5ncc[nH]5)c4)cc3C2=O)C(=O)N1 (stereo not shown) [Compound 112] | 270 |  | > 300 |  |
| Cc1cnc(NC(=O)NCc2ccc3c(c2)C(=O)N(C2CCC(=O)NC2=O)C3)s1 (stereo not shown) [Compound 147] | 253 |  | > 300 |  |
| COCCOc1cc(NC(=O)NCc2ccc3c(c2)C(=O)N(C2CCC(=O)NC2=O)C3)cc(Cl)c1C (stereo not shown) [Compound 125] | 596 |  | ≤ 100 |  |
| O=C1CCC(N2Cc3ccc(CNC(=O)Nc4ccccn4)cc3C2=O)C(=O)N1 (stereo not shown) [Compound 123] | 570 |  | > 300 |  |
| O=C1CCC(N2Cc3ccc(CNC(=O)Nc4cccnc4)cc3C2=O)C(=O)N1 (stereo not shown) [Compound 95] | 432 |  | > 300 |  |
| Cc1c(Cl)cc(NC(=O)NCc2ccc3c(c2)C(=O)N(C2CCC(=O)NC2=O)C3)cc1OC(F)(F)F (stereo not shown) [Compound 143] | 3590 |  | 100 to 300 |  |
| Cc1cc(NC(=O)NCc2ccc3c(c2)C(=O)N(C2CCC(=O)NC2=O)C3)cc(CN2CCOCC2)c1C (stereo not shown) [Compound 118] | 256 |  | ≤ 100 |  |
| CN1CCC(Oc2cccc(NC(=O)NCc3ccc4c(c3)C(=O)N(C3CCC(=O)NC3=O)C4)c2)CC1 (stereo not shown) [Compound 130] | 358 |  | > 300 |  |
| Cc1c(Cl)cc(NC(=O)NCc2ccc3c(c2)C(=O)N(C2CCC(=O)NC2=O)C3)cc1N(C)C (stereo not shown) [Compound 129] | 350 |  | ≤ 100 |  |
| Cc1ccc(CNC(=O)NCc2ccc3c(c2)C(=O)N(C2CCC(=O)NC2=O)C3)cc1Cl (stereo not shown) [Compound 152] | 284 |  | > 300 |  |
| O=C1CCC(N2Cc3ccc(CNC(=O)Nc4ccc5c(c4)OCO5)cc3C2=O)C(=O)N1 (stereo not shown) [Compound 153] | 1840 |  | > 300 |  |
